From ChEMBL document CHEMBL1152899, “Synthesis and preliminary screening of novel indole-3-methanamines as 5-HT4 receptor ligands” (Eur J Med Chem, 2009)
Calls of active or inactive are those of the source. The calls are words filed in the database; no cut-off is given here.

Key:
[1] = molecular target: T1, 5-hydroxytryptamine receptor 4 (Homo sapiens, UniProt Q13639); assay: Displacement of [3H]GR-113808 from human 5HT4b receptor expressed in COS7 cell membrane by scintillation counting
[2] = molecular target: T1, 5-hydroxytryptamine receptor 4; assay: Displacement of [3H]GR-113808 from human 5HT4b receptor expressed in COS7 cell membrane at 1 uM by scintillation counting; format: cell membranes; conditions: COS-7
[3] = molecular target: T1, 5-hydroxytryptamine receptor 4; assay: Displacement of [3H]GR-113808 from human recombinant 5HT4b receptor expressed in HEK293 cells by scintillation counting; format: cell-based

T1 sequence (Q13639 whole entry): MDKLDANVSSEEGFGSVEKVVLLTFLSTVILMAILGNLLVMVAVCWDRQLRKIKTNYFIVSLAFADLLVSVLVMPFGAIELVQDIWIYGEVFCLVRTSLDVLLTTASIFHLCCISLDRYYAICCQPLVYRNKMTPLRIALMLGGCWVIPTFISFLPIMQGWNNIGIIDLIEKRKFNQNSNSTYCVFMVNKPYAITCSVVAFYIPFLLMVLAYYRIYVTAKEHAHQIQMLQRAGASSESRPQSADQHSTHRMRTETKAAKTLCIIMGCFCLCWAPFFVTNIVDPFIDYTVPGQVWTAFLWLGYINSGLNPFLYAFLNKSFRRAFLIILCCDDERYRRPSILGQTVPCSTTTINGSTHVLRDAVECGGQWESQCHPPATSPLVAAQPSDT

Structure (SMILES) | Ki [1] | Activity [2] | Ki [3]
COc1ccc2[nH]cc(CNN3CCOCC3)c2c1 | 145 nM | Active | –
COc1ccc2[nH]cc(CCN)c2c1 [5-METHOXYTRYPTAMINE] | 26.9 nM | – | 245 nM
